Data as given in patent publication US20080026076A1 (priority 2003, published 2008).
“Also recorded” adds a separate entry of the source. Marks after values point to notes of the source that are not given here.

Legend:
8-isoprostane F2α = assay: Urinary 8-isoprostane F2α, enzyme-linked immunoassay; format: in vivo, human; conditions: for Urinary Isoprostane, Endpoint: end of quercetin phase
Procedure: During each patient visit whole blood (˜50 μL) was obtained from a digit puncture to determine blood lipids (LDL, VLDL, HDL, total cholesterol) and glucose using a clinical Cholestech LDX blood analyzer (37). Prior to each patient visit, first morning urine was collected, brought to the laboratory, and stored at −80° C. for later analysis of isoprostane concentrations. Urine 8-isoprostane F2α is a measure of lipid peroxidation and can be used to estimate oxidative stress in humans (45-47). Quantification of 8-isoprostane F2α (also known as 8-epi-PGF2α or 8-iso-PGF2α) in urine samples was performed using a competitive enzyme-linked immunoassay kit (Cayman Chemical, Ann Arbor, Mich.) according to the manufacturers instructions.

ERK1/2 = ERK1/2 signaling status in left ventricle, immunoblot; format: in vivo, rat; conditions: AAC rats fed supplemental quercetin
Procedure: Determination of ERK1/2 and Akt signaling status (FIGS. 4A & 4B). All extraction procedures were performed at 4° C. […] After homogenization, the samples were sonicated twice on ice and centrifuged at 11,000×g for 10 min. at 4° C. Supernatants were recovered and stored at −80° C. for subsequent immunoblotting. Protein concentration of whole heart cell lysate was determined using a Bio-Rad Protein assay (Bio-Rad, Hercules, Calif.) with bovine serum albumin (BSA) as a standard.

[1] = Trial: fasting blood lipids and glucose (Cholestech LDX); format: in vivo, human; conditions: after quercetin supplementation compared to placebo (data not shown)
Procedure: During each patient visit whole blood (˜50 μL) was obtained from a digit puncture to determine blood lipids (LDL, VLDL, HDL, total cholesterol) and glucose using a clinical Cholestech LDX blood analyzer (37). Prior to each patient visit, first morning urine was collected, brought to the laboratory, and stored at −80° C. for later analysis of isoprostane concentrations.

[2] = system: rats with abdominal aortic constriction (AAC) or sham operated; assay: Post-sacrifice morphometric measurements (body, heart and organ weights, heart rate) to assess cardiac hypertrophy; format: in vivo, rat; conditions: for Heart wt.: quercetin diet, mean ± SEM
Text: In this procedure the abdominal aorta is constricted to increase the afterload on the heart and produce pressure overload. […] Rats consumed this diet for 7 days.
On the 8th day, 5 rats were surgically modeled for pressure overload by constricting the abdominal aorta to a diameter of 0.63 mm with a Weck hemoclip. The other 5 rats were sham operated (anesthetized and the aorta exposed, but not constricted). […] Another group of 10 rats were placed on a standard diet with no supplement and treated in an identical fashion with 5 surgically modeled for pressure overload and 5 sham operated. […] Two weeks after surgery post-sacrifice morphometric measurements are obtained by measuring total heart weight, left ventricle weight, and calculating heart:body weight and left ventricle:body weight ratios to assess cardiac mass and cardiac hypertrophy.
Post-sacrifice morphometric measurements are obtained by measuring body weight, total heart weight, calculating heart:body weight ratios and heart rate to assess cardiac mass and cardiac hypertrophy.

[3] = system: mice with surgically induced abdominal aortic constriction; conditions: oral, 5 day, 120 mg/kg/day (Wang et al., 1999); cited from earlier work
[4] = 30 mg/kg quercetin (p.o.) in rats (ref. 61); cited from earlier work
[5] = system: spontaneously hypertensive rats; assay: Blood pressure in spontaneously hypertensive (SH) rats; format: in vivo, rat
Procedure: As described herein, this strain is well documented to have normal blood pressure until about 5-6 weeks of age (Makita and Yasuda, 1990). After about 5-6 weeks, the rats suffer from steadily increasing blood pressure from about 6 weeks of age until peaking at about 12-15 weeks of age.
Blood pressure was measured in SHR and SHRQ rats by lightly anesthetizing the animals using ketamine/xylazine (75/3.75 mg/kg i.p.). Rats were prewarmed for 15 minutes on heated platform and blood pressure was measured using a Visitech BP 2000 blood pressure system. Pressure measurements are reported as the average of between 4 and 8 separate measurements taken over a 70 second period. All rats fully recovered within […] after receiving anesthesia.
Blood pressure blood pressure was measured for each group at 6, 7.5, 9 and 10 weeks. Dietary supplement was initiated at 5 weeks and maintained throughout the experiment.
In a separate experiment using SH rats (dietary supplement was likewise initiated at 5 weeks), blood pressure was measured at 17 weeks.

[6] = system: prehypertensive and stage 1 hypertensive human subjects; assay: Randomized, placebo-controlled, double-blind crossover trial: blood pressure; format: in vivo; conditions: for Diastolic blood pressure, Endpoint / MAP, Endpoint / Systolic blood pressure, Endpoint: end of 4-week quercetin phase, 730 mg/day, mean ± SEM; for quercetin induced-lowering of systolic blood pressure: change from baseline
Text: Systemic markers of oxidant load also were examined as secondary outcomes to determine if reductions in blood pressure were associated with lower indices of oxidative stress. This study was approved by the University of Utah Human Use Review Committee, University of Utah Institutional Review Board, and written informed consent was obtained from each participant. Recruitment efforts in the greater Salt Lake City area targeted males and females with prehypertension (120-139 mmHg systolic/80-89 mmHg diastolic) and Stage 1 hypertension (140-159 mmHg systolic/90-99 mmHg diastolic) as defined by The 7th Report Of The Joint National Committee On Prevention, Detection, Evaluation, And Treatment Of High Blood Pressure (32). […] The secondary hypothesis was that quercetin-induced reductions in blood pressure would be associated with lower indices of systemic oxidant stress. […] A 14-day washout period separated the two phases. Subjects were randomly assigned to begin either the quercetin or the placebo phase first. […] Clinic visits were conducted on overnight-fasted subjects in the morning hours at the beginning and end of the placebo and quercetin supplementation phases. Subjects were instructed not to exercise prior to their appointments. […] Blood pressure was a primary outcome variable and was obtained at each clinic visit by a trained observer using an Omron random zero automatic blood pressure analyzer as previously described (35). Each participant sat quietly for 5-10 minutes, after which their arm was placed at heart level and blood pressure and pulse rate were determined at least three times in 3-5 minute intervals. If blood pressure varied among these determinations by more than 10 mmHg, three additional trials were performed. The accumulated measurements then were averaged to determine overall systolic and diastolic pressure and pulse rate for each subject.

PKC α, βI, ε, δ = assay: PKC isoform activation in left ventricle, Western blots; format: in vivo, rat; conditions: between all groups (SH, AAC, SHQ, AACQ)
Text: Following the experimental period, rats were sacrificed, left ventricles were homogenized, and cytosolic & membrane cell fractions isolated using differential centrifugation as previously described (Jalili et al., 1999). Immunobloting using standard protocols was used to assess PKC distribution. […] Increased abundance in membrane bound fractions is indicative of PKC activation.
Western blotting, transfer and densitometry: Electrophoresis and transfer of proteins to PVDF membranes were done as previously described (18, 19). Primary antibody directed against PKC α, βI, βII, δ, and ε (Santa Cruz Biotechnology, Santa Cruz, Calif.) were incubated overnight at 4° C. in a 1:1000 dilution. Antibodies directed against phospho ERK 1/2, phospho JNK, ph c-Raf (Cell Signal Technology, Beverly, Mass.), and phospho PKC P (Santa Cruz Biotechnology, Santa Cruz, Calif.), were incubated at a 1:1000 dilution for 48 h at 4° C. in 5% BSA Tris buffer with 0.05% Tween-20. Secondary antibody conjugated to horseradish peroxidase (goat anti rabbit, (Cell Signal Technology, Beverly, Mass.)) was incubated for 1 h at 1:10,000 dilution. Signals were visualized by enhanced chemiluminescence (Cell Signal Technology, Beverly, Mass.). Relative band density of immunoblots on film were measured with a scanner using NIH 1.63 image software (National Institutes of Health, Rockville, Md.).

[7] = 1.5 g/kg chow quercetin from 5 weeks of age, measured at 6 to 10 weeks, vs control diet

O=c1c(O)c(-c2ccc(O)c(O)c2)oc2cc(O)cc(O)c12 [quercetin, 3,5,7,3′,4′-pentahydroxyflavone]
fasting urinary 8-isoprostane F2α concentration, quercetin supplementation vs. placebo (8-isoprostane F2α; both groups of hypertensive subjects): not altered | Urinary Isoprostane, Endpoint (8-isoprostane F2α; prehypertensive (n=10), baseline 518 ± 55): 520 ± 75 ng/g creatine | Urinary Isoprostane, Endpoint (8-isoprostane F2α; stage 1 hypertensive (n=8), baseline 822 ± 249): 549 ± 59 ng/g creatine | activation of ERK1/2 (ERK1/2): reduced | Fasting blood glucose levels [1]: unchanged | Heart wt. ([2]; AAC + Q (n = 9)): 1.18 ± 0.03^b g | cardiac hypertrophy ([2]; AAC-Q rats compared with AAC and sham rats, two weeks after surgery): lower level of cardiac hypertrophy; also recorded: levels of hypertrophy in between S and AAC rats | Heart wt. ([2]; Sham + Q (n = 10)): 1.01 ± 0.03^a g | cardiac hypertrophy [3]: prevented cardiac hypertrophy | hypertensive response to i.v. administration of angiotensin II [4]: significantly blunted the hypertensive response | onset of hypertension ([5]; 1.5 g quercetin/kg diet from 5 weeks of age): delayed the onset of hypertension | diastolic pressure [5, 7]: did not show a statistically significant changed | mean arterial pressure [5, 7]: did not show a statistically significant changed | systolic blood pressure [5, 7]: decreased systolic blood pressure | blood pressure at 17 weeks ([5]; separate experiment, supplement from 5 weeks, control vs quercetin treated): No significant difference in blood pressure | Diastolic blood pressure, Endpoint ([6]; prehypertensive (n=22), baseline 85 ± 1): 83 ± 2 mmHg | MAP, Endpoint ([6]; prehypertensive (n=22), baseline 101 ± 1): 98 ± 2 mmHg | Systolic blood pressure, Endpoint ([6]; prehypertensive (n=22), baseline 133 ± 2): 128 ± 3 mmHg | quercetin induced-lowering of systolic blood pressure ([6]; prehypertensive): −5.2 mmHg | Diastolic blood pressure, Endpoint ([6]; stage 1 hypertensive (n=22), baseline 97 ± 1): 92 ± 2 mmHg | MAP, Endpoint ([6]; stage 1 hypertensive (n=22), baseline 113 ± 1): 108 ± 2 mmHg | Systolic blood pressure, Endpoint ([6]; stage 1 hypertensive (n=22), baseline 145 ± 2): 138 ± 2 mmHg | quercetin induced-lowering of systolic blood pressure ([6]; stage 1 hypertensive): −7.2 mmHg | carryover antihypertensive effect: mean arterial pressure at baseline of quercetin phase vs placebo phase ([6]; subjects that received quercetin treatment first): No differences were found | Activation of PKC α, βI, ε, or δ isoforms (PKC α, βI, ε, δ): no significant differences
